The term IC50 denotes the point on the concentration scale where inhibition reaches its midpoint. The low end stands for higher potency, the high end for lower potency. By EC50 is commonly meant the concentration that produces a half-maximal response.

Some results are limits rather than exact numbers.

Among the data in patent US12312359B2 (Vitae Pharmaceuticals, LLC, priority 2016, dated 2025) are IC50 and EC50 values, retold here.

The target of experiment [1] is T1, biotinylated wild-type menin and MLL-AF9 fusion protein (menin/MLL binding) (Homo sapiens, UniProt O00255).
T1 construct: made in house; host or cells: menin: E. coli; MLL-AF9-FLAG: HEK293 cells, used as cleared lysate
T1 sequence (O00255 1-610): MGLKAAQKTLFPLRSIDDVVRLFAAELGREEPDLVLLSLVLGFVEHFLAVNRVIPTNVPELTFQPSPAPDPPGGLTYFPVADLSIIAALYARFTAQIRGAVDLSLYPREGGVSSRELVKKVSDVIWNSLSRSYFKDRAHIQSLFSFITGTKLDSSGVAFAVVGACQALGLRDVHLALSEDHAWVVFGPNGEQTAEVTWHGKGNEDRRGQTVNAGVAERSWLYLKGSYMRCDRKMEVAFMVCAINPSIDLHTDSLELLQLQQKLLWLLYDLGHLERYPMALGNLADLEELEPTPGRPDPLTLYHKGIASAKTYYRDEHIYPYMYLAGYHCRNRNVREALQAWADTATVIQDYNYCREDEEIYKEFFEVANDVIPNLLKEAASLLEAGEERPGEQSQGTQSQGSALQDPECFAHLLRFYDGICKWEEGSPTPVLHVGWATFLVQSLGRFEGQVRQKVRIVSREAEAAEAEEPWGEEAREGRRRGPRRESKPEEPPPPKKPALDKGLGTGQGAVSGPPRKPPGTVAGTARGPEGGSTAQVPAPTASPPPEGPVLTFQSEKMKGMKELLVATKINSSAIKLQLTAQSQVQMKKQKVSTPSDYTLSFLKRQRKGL
The experiment is described as follows: Assay 1: menin/MLL binding AlphaLISA assay, wild-type menin. The note with it: Table 30; column head does not say wild-type or mutated menin. Put shortly: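 Compound was preincubated 30 min at room temperature with biotinylated menin (5 nM) and MLL-AF9-FLAG lysate from HEK293 cells, pH 7.4 buffer with 5% DMSO and DTT. Bead-based Alpha signal after 60 min with streptavidin donor and anti-FLAG acceptor beads; four-parameter logistic fit gave IC50.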
For orientation: Alpha assays give light when donor and acceptor beads are brought close together.

Experiment [2] deals with human acute monocytic leukemia cell line MV-4-11. The experiment is described as follows: Assay 2: cell proliferation assay (ATP quantitation, CellTiter-Glo), MV-4-11. It is filed as cell-based. The note with it: Homo sapiens, MV4-11, 72 h, MV-4-11 cells. Put shortly: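 Read-out is CellTiter-Glo luminescence quantifying ATP. Compound exposure lasted 72 h at 37° C., 5% CO2, with 1.67×10^4 MV-4-11 cells per well in 10% FBS medium, alongside HL-60 toxicity-control cells.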

For `Fc1ccc(Oc2cncnc2N2CC3(CN(CC4CCOCC4)C3)C2)c(OC2CCCC2)c1` [Example 168, 2-(5-(2-(cyclopentyloxy)-4-fluorophenoxy)pyrimidin-4-yl)-6-((tetrahydro-2H-pyran-4-yl)methyl)-2,6-diazaspiro[3.3]heptane], the IC50 in experiment [1] was below 0.1 µM. This compound also came in with an EC50 in experiment [2] of at least 1 µM.

Take `N#Cc1ccc(-c2cc(F)ccc2Oc2cncnc2N2CCC3(CCN(Cc4ccc5oc(=O)[nH]c5c4)C3)C2)c(C2CC2)c1` (stereo not shown) [Example 169, 2-cyclopropyl-5′-fluoro-2′-((4-(7-((2-oxo-2,3-dihydrobenzo[d]oxazol-5-yl)methyl)-2,7-diazaspiro[4.4]nonan-2-yl)pyrimidin-5-yl)oxy)-[1,1′-biphenyl]-4-carbonitrile]: in experiment [1], the IC50 is below 0.1 µM. Moreover, the EC50 in experiment [2] is below 0.1 µM.

`COC(=O)Nc1cccc(CN2CCC3(CCN(c4ncncc4Oc4ccc(F)cc4-c4ccc(C#N)cc4C4CC4)C3)C2)c1` (stereo not shown) [Example 170, methyl (3-((7-(5-((4′-cyano-2′-cyclopropyl-5-fluoro-[1,1′-biphenyl]-2-yl)oxy)pyrimidin-4-yl)-2,7-diazaspiro[4.4]nonan-2-yl)methyl)phenyl) carbamate]: in experiment [1], the IC50 is below 0.1 µM. Also, in experiment [2], the EC50 lay within 0.1 to 1 µM.

Consider `N#Cc1ccc(-c2cc(F)ccc2Oc2cncnc2N2CCC3(CCN(Cc4ccc5nn[nH]c5c4)C3)C2)c(C2CC2)c1` (stereo not shown) [Example 171, 2′-((4-(7-((1H-benzo[d][1,2,3]triazol-6-yl)methyl)-2,7-diazaspiro[4.4]nonan-2-yl)pyrimidin-5-yl)oxy)-2-cyclopropyl-5′-fluoro-[1,1′-biphenyl]-4-carbonitrile], for which the 50% inhibitory concentration (IC50) in experiment [1] was below 0.1 µM. The same compound came in with an EC50 in experiment [2] below 0.1 µM.

`CC(=O)Nc1ccc(CN2CCC3(CCN(c4ncncc4Oc4ccc(F)cc4-c4ccc(C#N)cc4C4CC4)C3)C2)cc1Cl` (stereo not shown) [Example 172, N-(2-chloro-4-((7-(5-((4′-cyano-2′-cyclopropyl-5-fluoro-[1,1′-biphenyl]-2-yl)oxy)pyrimidin-4-yl)-2,7-diazaspiro[4.4]nonan-2-yl)methyl)phenyl) acetamide] displayed an IC50 in experiment [1] below 0.1 µM. This compound also had an EC50 in experiment [2] of 0.1 to 1 µM.

In experiment [1], `CCN(CC)C(=O)c1cc(F)ccc1Oc1cncnc1N1CCC2(CCN(Cc3ccc4[nH]c(=O)[nH]c4c3)C2)C1` (stereo not shown) [Example 173, N,N-diethyl-5-fluoro-2-((4-(7-((2-oxo-2,3-dihydro-1H-benzo[d]imidazol-5-yl)methyl)-2,7-diazaspiro[4.4]nonan-2-yl)pyrimidin-5-yl)oxy)benzamide] showed an IC50 below 0.1 µM. This compound came in with an EC50 in experiment [2] of 0.1 to 1 µM.

In experiment [1], `CC(C)N(C)C(=O)c1cc(F)ccc1Oc1cncnc1N1CCC2(CCN(Cc3ccc4oc(=O)[nH]c4c3)C2)C1` (stereo not shown) [Example 174, 5-fluoro-N-isopropyl-N-methyl-2-((4-(7-((2-oxo-2,3-dihydrobenzo[d]oxazol-5-yl)methyl)-2,7-diazaspiro[4.4]nonan-2-yl)pyrimidin-5-yl)oxy)benzamide] had an IC50 below 0.1 µM. This compound had a concentration giving a half-maximal response (EC50) in experiment [2] below 0.1 µM.

On to `CN(C(=O)c1cc(F)ccc1Oc1cncnc1N1CCC2(CCN(Cc3ccc4[nH]c(=O)[nH]c4c3)C2)C1)C(C)(C)C` (stereo not shown) [Example 175, N-(tert-butyl)-5-fluoro-N-methyl-2-((4-(7-((2-oxo-2,3-dihydro-1H-benzo[d]imidazol-5-yl)methyl)-2,7-diazaspiro[4.4]nonan-2-yl)pyrimidin-5-yl)oxy)benzamide], for which the IC50 in experiment [1] was below 0.1 µM. The EC50 in experiment [2] is at least 1 µM.

For the compound `CC(C)c1ncncc1-c1cc(F)ccc1Oc1cncnc1N1CCC2(CCN(CC(C)(C)O)C2)C1` (stereo not shown) [Example 176, 1-(7-(5-(4-fluoro-2-(4-isopropylpyrimidin-5-yl)phenoxy)pyrimidin-4-yl)-2,7-diazaspiro[4.4]nonan-2-yl)-2-methylpropan-2-ol], the IC50 in experiment [1] is below 0.1 µM. Moreover, the EC50 in experiment [2] was at least 1 µM.

In experiment [1], `Fc1ccc(Oc2cncnc2N2CC3(CN(CC4CCOCC4)C3)C2)c(-c2cccnc2C2CC2)c1` [Example 177, 2-(5-(2-(2-cyclopropylpyridin-3-yl)-4-fluorophenoxy)pyrimidin-4-yl)-6-((tetrahydro-2H-pyran-4-yl)methyl)-2,6-diazaspiro[3.3] heptane] displayed an IC50 below 0.1 µM. In experiment [2], this compound yielded a half-maximal effective concentration (EC50) below 0.1 µM.

For the compound `CC(C)c1ncncc1-c1cc(F)ccc1Oc1cncnc1N1CCC2(CCN(Cc3ccc4c(c3)NC(=O)C4(C)C)C2)C1` (stereo not shown) [Example 178, 6-((7-(5-(4-fluoro-2-(4-isopropylpyrimidin-5-yl)phenoxy)pyrimidin-4-yl)-2,7-diazaspiro[4.4]nonan-2-yl)methyl)-3,3-dimethylindolin-2-one], the IC50 in experiment [1] was below 0.1 µM. In experiment [2], this compound came in with an EC50 below 0.1 µM.

The compound `CC1(C)C(=O)Nc2cc(CN3CCC4(CCN(c5ncncc5Oc5ccc(F)cc5-c5cccnc5C5CC5)C4)C3)ccc21` (stereo not shown) [Example 179, 6-((7-(5-(2-(2-cyclopropylpyridin-3-yl)-4-fluorophenoxy)pyrimidin-4-yl)-2,7-diazaspiro[4.4]nonan-2-yl)methyl)-3,3-dimethylindolin-2-one] yielded an IC50 in experiment [1] below 0.1 µM. Moreover, the EC50 in experiment [2] was below 0.1 µM.

For the compound `O=c1[nH]c2ccc(CN3CCC4(CCN(c5ncncc5Oc5ccc(F)cc5-c5cccnc5C5CC5)C4)C3)cc2[nH]1` (stereo not shown) [Example 180, 5-((7-(5-(2-(2-cyclopropylpyridin-3-yl)-4-fluorophenoxy)pyrimidin-4-yl)-2,7-diazaspiro[4.4]nonan-2-yl)methyl)-1,3-dihydro-2H-benzo[d]imidazol-2-one], the IC50 in experiment [1] is below 0.1 µM. The compound also gave an EC50 in experiment [2] below 0.1 µM.

`CC(C)c1ncncc1-c1cc(F)ccc1Oc1cncnc1N1CC2(CC(N(C)Cc3ccc(C#N)cc3)CO2)C1` (stereo not shown) [Example 181, 4-(((2-(5-(4-fluoro-2-(4-isopropylpyrimidin-5-yl)phenoxy)pyrimidin-4-yl)-5-oxa-2-azaspiro[3.4]octan-7-yl)(methyl)amino)methyl)benzonitrile] returned an IC50 in experiment [1] below 0.1 µM. In experiment [2], this compound displayed an EC50 of 0.1 to 1 µM.

For `CC1(C)C(=O)Nc2cc(CN3CCC4(CCN(c5ncncc5Oc5ccc(F)cc5OCC(F)(F)F)C4)C3)ccc21` (stereo not shown) [Example 182, 6-((7-(5-(4-fluoro-2-(2,2,2-trifluoroethoxy)phenoxy)pyrimidin-4-yl)-2,7-diazaspiro[4.4]nonan-2-yl)methyl)-3,3-dimethylindolin-2-one], the IC50 in experiment [1] was below 0.1 µM. In experiment [2], this compound registered an EC50 of 0.1 to 1 µM.

On to `CC(C)N(C)C(=O)c1cc(F)ccc1Oc1cncnc1N1CCC2(CCN(Cc3ccc4[nH]c(=O)[nH]c4c3)C2)C1` (stereo not shown) [Example 183, 5-fluoro-N-isopropyl-N-methyl-2-((4-(7-((2-oxo-2,3-dihydro-1H-benzo[d]imidazol-5-yl)methyl)-2,7-diazaspiro[4.4]nonan-2-yl)pyrimidin-5-yl)oxy)benzamide], for which the IC50 in experiment [1] is below 0.1 µM. In experiment [2], this compound returned a concentration for a half-maximal effect (EC50) below 0.1 µM.

With `CC(C)c1ncncc1-c1cc(F)ccc1Oc1cncnc1N1CC2(CC(NCC3CCCCC3)CO2)C1` (stereo not shown) [Example 184, N-(cyclohexylmethyl)-2-(5-(4-fluoro-2-(4-isopropylpyrimidin-5-yl)phenoxy)pyrimidin-4-yl)-5-oxa-2-azaspiro[3.4]octan-7-amine], in experiment [1], the IC50 is below 0.1 µM. The compound also had an EC50 in experiment [2] of 0.1 to 1 µM.
